Assay results reported in patent US6420399B1, “Topical ophthalmic mast cell stabilizers for treating allergic eye disease” (Alcon Manufacturing, Ltd., priority 1999, dated 2002).

Columns and labels:
mast cells = conditions: concentrations higher than those with antihistaminic / stabilizing activity; cited from earlier work
[1] = Surface Activity Rating: change in surface pressure of SOPC monolayer in Langmuir trough; format: physicochemical; conditions: initial surface pressure 30 mN/m, 24° C.
From the text: The Surface Activity Rating is obtained by determining the interaction of an amphipathic anti-allergy drug (“test compound”) in buffer alone with a phospholipid monolayer. Test compound/mast cell membrane interaction is mimicked in a phospholipid monolayer spread onto an aqueous buffer in a modified Langmuir trough. In this system, test compound-membrane interaction is quantified by determining the change in surface pressure (Δπ in mN/m) of a monomolecular film of 1-stearoyl-2-oleoyl-sn-glycero-3-phosphocholine (SOPC) spread at an initial surface pressure of 28-32 mN/m on an aqueous buffer sub-phase. The initial surface pressure of 28-32 mN/m is chosen because this pressure mimics that of most mammalian cell membranes. […]
Surface pressure is measured using an automated interfacial monitor-controller built around a Cahn 27 electrobalance equipped with a 24 ga. nichrome wire Wilhelmy probe. […]
The effect of test compound on surface pressure is determined by a continuous exchange of the aqueous phase with a concentrated solution of the test compound in buffer. […] The concentration of test compound in the aqueous phase is determined from the fraction of sub-phase volume exchanged and the concentration of the solute in the concentrated solution. […]

[2] = tested on: human conjunctival mast cells; conditions: purified preparations of human conjunctival mast cells; Yanni et al. 1996; cited from earlier work

Compound | effect on histamine release from mast cells as a function of concentration (mast cells) | increase in surface pressure (Surface Activity Rating) ([1]; pH 7.5, concentration in aqueous sub-phase increased from 0 to 5 mM) | effect on histamine release as a function of concentration [2] | increase in surface pressure (Surface Activity Rating) ([1]; pH 7.5, concentration range of 0-3.5 mM)
CN(C)CC/C=C1/c2ccccc2COc2ccc(CC(=O)O)cc21 [olopatadine, Z-11-(3-dimethylaminopropylidene)-6,11-dihydrodibenz[b,e]oxepin-2-acetic acid] | does not provoke a release of histamine from mast cells | 7.1 mN/m |  | 
O=C(O)c1cc(=O)c2c(OCC(O)COc3cccc4oc(C(=O)O)cc(=O)c34)cccc2o1 [cromolyn sodium] | biphasic behavior |  |  | 
CN1CCC(=C2c3ccccc3CC(=O)c3sccc32)CC1 [ketotifen, 4,9-dihydro-4-(1-methyl-4-piperidinyl-idene)-10H-benzo[4,5]cyclohepta-[1,2-b]thiophen-10-one] |  |  | biphasic behavior | 15 mN/m
